Source: US11945822B2, “Pyrazolo-triazine and/or pyrazolo-pxrimidine derivatives as selective inhibitor of cyclin dependent kinase” (QURIENT CO., LTD., priority 2018, dated 2024)

Target: T1, CDK7/Cyclin H/MNAT1 (Homo sapiens, UniProt P50613)
T1 construct: purchased Invitrogen PR6749B
Experiment: Enzymatic assay for CDK7 (FRET based LANCE Ultra kinase assay)
Type: biochemical
Conditions: CDK7 over CDK1
Method in brief: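 LANCE Ultra TR-FRET kinase assay using a ULight-labeled peptide substrate and a Eu-labeled anti-phospho antibody, with ATP at its Km. Purified CDK/cyclin complex was added to compound after brief centrifugation.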

T1 sequence (P50613 whole entry): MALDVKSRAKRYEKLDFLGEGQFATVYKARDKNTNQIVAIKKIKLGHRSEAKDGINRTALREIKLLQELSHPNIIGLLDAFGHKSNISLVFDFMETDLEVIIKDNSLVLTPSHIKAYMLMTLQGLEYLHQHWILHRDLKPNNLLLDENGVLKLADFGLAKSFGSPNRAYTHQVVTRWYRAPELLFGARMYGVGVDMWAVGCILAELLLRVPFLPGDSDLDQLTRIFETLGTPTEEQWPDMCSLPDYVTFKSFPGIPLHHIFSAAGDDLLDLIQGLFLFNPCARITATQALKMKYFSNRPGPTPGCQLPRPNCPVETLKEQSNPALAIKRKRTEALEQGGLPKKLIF
T1 sequence (P51946 whole entry partner): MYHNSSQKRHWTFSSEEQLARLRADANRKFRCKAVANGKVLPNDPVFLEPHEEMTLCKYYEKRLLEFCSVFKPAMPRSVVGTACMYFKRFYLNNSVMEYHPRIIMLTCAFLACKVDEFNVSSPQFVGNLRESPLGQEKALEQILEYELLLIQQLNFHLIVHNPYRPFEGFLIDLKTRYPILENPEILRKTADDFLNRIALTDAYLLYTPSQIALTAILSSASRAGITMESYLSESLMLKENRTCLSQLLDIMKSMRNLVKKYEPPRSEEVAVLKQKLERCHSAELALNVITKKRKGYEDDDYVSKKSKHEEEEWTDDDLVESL
T1 sequence (P51948 whole entry partner): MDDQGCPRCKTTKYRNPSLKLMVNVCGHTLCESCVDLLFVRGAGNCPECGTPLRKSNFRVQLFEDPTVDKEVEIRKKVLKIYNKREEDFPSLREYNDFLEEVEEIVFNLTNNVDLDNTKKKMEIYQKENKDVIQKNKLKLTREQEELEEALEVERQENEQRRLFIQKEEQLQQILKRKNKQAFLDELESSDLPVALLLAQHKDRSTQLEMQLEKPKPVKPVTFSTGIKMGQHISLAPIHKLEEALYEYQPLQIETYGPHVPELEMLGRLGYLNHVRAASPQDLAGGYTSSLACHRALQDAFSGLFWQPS

Row | CDK1/CDK7: Selectivity of CDK7 inhibition over CDK1 inhibition | Compound
1 | A (A=greater than 200 fold) | CC(C)c1cnn2c(NCc3ccccc3-c3nc4ccccc4[nH]3)nc(N3CCC(N)CC3)nc12 [Compound 98]
2 | A (A=greater than 200 fold) | CC(C)c1cnn2c(NCc3ccccc3-n3cc4cc(Cl)ccc4n3)nc(N3CCC(N)CC3)nc12 [Compound 103]

Row | Compound | CDK1/CDK7: Selectivity of CDK7 inhibition over CDK1 inhibition
3 | CC(C)c1cnn2c(NCc3ccccc3-c3nc4ccccc4o3)nc(N3CCC(N)CC3)nc12 [Compound 97] | B (B=less than 200 fold, but greater than 20 fold)

Same assay, conditions: CDK7 over CDK2

Row | Compound | CDK2/CDK7: Selectivity of CDK7 inhibition over CDK2 inhibition
4 | CC(C)c1cnn2c(NCc3ccccc3-c3nc4ccccc4o3)nc(N3CCC(N)CC3)nc12 [Compound 97] | B (B=less than 200 fold, but greater than 20 fold)
5 | CC(C)c1cnn2c(NCc3ccccc3-c3nc4ccccc4[nH]3)nc(N3CCC(N)CC3)nc12 [Compound 98] | B (B=less than 200 fold, but greater than 20 fold)
6 | CC(C)c1cnn2c(NCc3ccccc3-n3cc4cc(Cl)ccc4n3)nc(N3CCC(N)CC3)nc12 [Compound 103] | B (B=less than 200 fold, but greater than 20 fold)

Same assay, conditions: CDK7 over CDK5

Row | Compound | CDK5/CDK7: Selectivity of CDK7 inhibition over CDK5 inhibition
7 | CC(C)c1cnn2c(NCc3ccccc3-c3nc4ccccc4o3)nc(N3CCC(N)CC3)nc12 [Compound 97] | B (B=less than 200 fold, but greater than 20 fold)
8 | CC(C)c1cnn2c(NCc3ccccc3-c3nc4ccccc4[nH]3)nc(N3CCC(N)CC3)nc12 [Compound 98] | B (B=less than 200 fold, but greater than 20 fold)
9 | CC(C)c1cnn2c(NCc3ccccc3-n3cc4cc(Cl)ccc4n3)nc(N3CCC(N)CC3)nc12 [Compound 103] | B (B=less than 200 fold, but greater than 20 fold)

Same assay, conditions: read-out: CDK7 enzymatic activity (IC50 range)

Row | IC50 | Compound
10 | < 0.1 µM | CC(C)c1cnn2c(NCc3ccccc3-c3nc4ccccc4o3)nc(N3CCC(N)CC3)nc12 [Compound 97]
11 | < 0.1 µM | CC(C)c1cnn2c(NCc3ccccc3-c3nc4ccccc4[nH]3)nc(N3CCC(N)CC3)nc12 [Compound 98]
12 | < 0.1 µM | CC(C)c1cnn2c(NCc3ccccc3-n3cc4cc(Cl)ccc4n3)nc(N3CCC(N)CC3)nc12 [Compound 103]

Target: T2, CDK1/Cyclin B (Homo sapiens, UniProt P06493)
T2 construct: purchased Invitrogen PR4768C
Experiment: Enzymatic assay for CDK1 (FRET based LANCE Ultra kinase assay)
Type: biochemical
Conditions: read-out: CDK1 enzymatic activity (IC50 range)
Method in brief: (§1)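 LANCE Ultra TR-FRET: ULight-MBP peptide (68 nM) with ATP at Km, […], 60 min at 23° C. EDTA plus Eu-anti-phospho-MBP added, another 60 min, then 665/615 nm emission read. Compounds tested as 8-dose 4-fold DMSO dilutions.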

T2 sequence (P06493 whole entry): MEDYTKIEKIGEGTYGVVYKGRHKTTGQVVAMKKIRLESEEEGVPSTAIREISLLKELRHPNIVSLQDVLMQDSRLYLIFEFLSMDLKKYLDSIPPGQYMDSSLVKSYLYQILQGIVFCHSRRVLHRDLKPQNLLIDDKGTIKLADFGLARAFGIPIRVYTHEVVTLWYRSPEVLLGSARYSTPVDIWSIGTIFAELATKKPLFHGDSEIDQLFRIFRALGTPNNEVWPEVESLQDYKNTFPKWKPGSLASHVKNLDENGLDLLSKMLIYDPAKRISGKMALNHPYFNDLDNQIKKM
T2 sequence (P14635 whole entry partner): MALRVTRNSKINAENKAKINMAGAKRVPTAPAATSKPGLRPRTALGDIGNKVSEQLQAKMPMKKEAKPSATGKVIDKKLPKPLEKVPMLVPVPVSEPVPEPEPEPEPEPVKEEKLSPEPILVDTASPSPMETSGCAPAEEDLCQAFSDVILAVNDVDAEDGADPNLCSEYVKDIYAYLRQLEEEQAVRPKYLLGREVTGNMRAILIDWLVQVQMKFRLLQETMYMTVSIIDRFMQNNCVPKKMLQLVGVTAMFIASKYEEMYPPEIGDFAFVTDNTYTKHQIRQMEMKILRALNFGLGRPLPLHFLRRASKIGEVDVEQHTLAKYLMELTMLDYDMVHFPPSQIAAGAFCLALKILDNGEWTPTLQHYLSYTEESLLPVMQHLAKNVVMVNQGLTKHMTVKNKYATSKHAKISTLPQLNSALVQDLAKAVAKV

Row | IC50 | Compound
13 | 0.1 to 1 µM | CC(C)c1cnn2c(NCc3ccccc3-c3nc4ccccc4o3)nc(N3CCC(N)CC3)nc12 [Compound 97]
14 | 0.1 to 1 µM | CC(C)c1cnn2c(NCc3ccccc3-c3nc4ccccc4[nH]3)nc(N3CCC(N)CC3)nc12 [Compound 98]
15 | > 1 µM | CC(C)c1cnn2c(NCc3ccccc3-n3cc4cc(Cl)ccc4n3)nc(N3CCC(N)CC3)nc12 [Compound 103]

Tested on: RPMI-8226
Experiment: Cellular RPMI-8226 viability assay (CellTiter-Glo, 72 hours)
Type: cell-based
Conditions: Homo sapiens
Method in brief: (§2)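 Steps: seed cells at per-line density; add compound, DMSO vehicle kept under 0.1% final; incubate 72 h, 37 °C, 5% CO2; lyse with CellTiter-Glo and read luminescence; run in duplicate.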

Row | IC50 | Compound
16 | < 1 µM | CC(C)c1cnn2c(NCc3ccccc3-c3nc4ccccc4o3)nc(N3CCC(N)CC3)nc12 [Compound 97]
17 | < 1 µM | CC(C)c1cnn2c(NCc3ccccc3-c3nc4ccccc4[nH]3)nc(N3CCC(N)CC3)nc12 [Compound 98]
18 | < 1 µM | CC(C)c1cnn2c(NCc3ccccc3-n3cc4cc(Cl)ccc4n3)nc(N3CCC(N)CC3)nc12 [Compound 103]

Tested on: HCT116
Experiment: Cellular HCT116 viability assay (CellTiter-Glo, 72 hours)
Type: cell-based
Conditions: Homo sapiens, HCT-116
Method in brief: as §2

Row | IC50 | Compound
19 | < 1 µM | CC(C)c1cnn2c(NCc3ccccc3-c3nc4ccccc4o3)nc(N3CCC(N)CC3)nc12 [Compound 97]
20 | < 1 µM | CC(C)c1cnn2c(NCc3ccccc3-c3nc4ccccc4[nH]3)nc(N3CCC(N)CC3)nc12 [Compound 98]

Target: T3, CDK2/Cyclin A (Homo sapiens, UniProt P24941)
T3 construct: purchased Invitrogen PV6290
Experiment: Enzymatic assay for CDK2 (FRET based LANCE Ultra kinase assay)
Type: biochemical
Conditions: read-out: CDK2 enzymatic activity (IC50 range)
Method in brief: as §1

Row | IC50 | Compound
21 | 0.1 to 1 µM | CC(C)c1cnn2c(NCc3ccccc3-c3nc4ccccc4o3)nc(N3CCC(N)CC3)nc12 [Compound 97]
22 | 0.1 to 1 µM | CC(C)c1cnn2c(NCc3ccccc3-c3nc4ccccc4[nH]3)nc(N3CCC(N)CC3)nc12 [Compound 98]
23 | 0.1 to 1 µM | CC(C)c1cnn2c(NCc3ccccc3-n3cc4cc(Cl)ccc4n3)nc(N3CCC(N)CC3)nc12 [Compound 103]

Tested on: MV4-11
Experiment: Cellular MV4-11 viability assay (CellTiter-Glo, 72 hours)
Type: cell-based
Conditions: Homo sapiens
Method in brief: as §2

Row | IC50 | Compound
24 | < 1 µM | CC(C)c1cnn2c(NCc3ccccc3-c3nc4ccccc4o3)nc(N3CCC(N)CC3)nc12 [Compound 97]
25 | < 1 µM | CC(C)c1cnn2c(NCc3ccccc3-c3nc4ccccc4[nH]3)nc(N3CCC(N)CC3)nc12 [Compound 98]
26 | < 1 µM | CC(C)c1cnn2c(NCc3ccccc3-n3cc4cc(Cl)ccc4n3)nc(N3CCC(N)CC3)nc12 [Compound 103]

Tested on: H460
Experiment: Cellular H460 viability assay (CellTiter-Glo, 72 hours)
Type: cell-based
Conditions: Homo sapiens, NCI-H460
Method in brief: as §2

Row | IC50 | Compound
27 | < 1 µM | CC(C)c1cnn2c(NCc3ccccc3-c3nc4ccccc4o3)nc(N3CCC(N)CC3)nc12 [Compound 97]
28 | < 1 µM | CC(C)c1cnn2c(NCc3ccccc3-c3nc4ccccc4[nH]3)nc(N3CCC(N)CC3)nc12 [Compound 98]
29 | < 1 µM | CC(C)c1cnn2c(NCc3ccccc3-n3cc4cc(Cl)ccc4n3)nc(N3CCC(N)CC3)nc12 [Compound 103]

Target: T4, CDK5/p25 (Homo sapiens, UniProt Q00535)
T4 construct: purchased Invitrogen PR8543B
Experiment: Enzymatic assay for CDK5 (FRET based LANCE Ultra kinase assay)
Type: biochemical
Conditions: read-out: CDK5 enzymatic activity (IC50 range)
Method in brief: as §1

T4 sequence (Q00535 whole entry): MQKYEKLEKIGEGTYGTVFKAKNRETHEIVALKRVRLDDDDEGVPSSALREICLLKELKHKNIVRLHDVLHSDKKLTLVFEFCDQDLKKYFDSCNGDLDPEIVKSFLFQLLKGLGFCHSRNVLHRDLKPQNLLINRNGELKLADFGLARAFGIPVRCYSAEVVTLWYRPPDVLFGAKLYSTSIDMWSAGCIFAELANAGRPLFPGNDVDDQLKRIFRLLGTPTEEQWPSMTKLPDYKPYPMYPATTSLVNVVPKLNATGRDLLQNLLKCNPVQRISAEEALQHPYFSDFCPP
T4 sequence (Q15078 99-307 partner limits assumed): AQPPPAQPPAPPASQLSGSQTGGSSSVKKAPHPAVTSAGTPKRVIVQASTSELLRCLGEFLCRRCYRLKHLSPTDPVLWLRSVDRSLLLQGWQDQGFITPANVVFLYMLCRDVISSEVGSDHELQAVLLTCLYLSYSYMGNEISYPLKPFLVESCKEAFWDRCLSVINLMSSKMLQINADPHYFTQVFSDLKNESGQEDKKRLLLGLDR

Row | IC50 | Compound
30 | 0.1 to 1 µM | CC(C)c1cnn2c(NCc3ccccc3-c3nc4ccccc4o3)nc(N3CCC(N)CC3)nc12 [Compound 97]
31 | < 0.1 µM | CC(C)c1cnn2c(NCc3ccccc3-c3nc4ccccc4[nH]3)nc(N3CCC(N)CC3)nc12 [Compound 98]
32 | 0.1 to 1 µM | CC(C)c1cnn2c(NCc3ccccc3-n3cc4cc(Cl)ccc4n3)nc(N3CCC(N)CC3)nc12 [Compound 103]

Tested on: MOLT-4
Experiment: Cellular MOLT-4 viability assay (CellTiter-Glo, 72 hours)
Type: cell-based
Conditions: Homo sapiens, MOLT4 viability assay
Method in brief: as §2

Row | IC50 | Compound
33 | 1 to 10 µM | CC(C)c1cnn2c(NCc3ccccc3-c3nc4ccccc4o3)nc(N3CCC(N)CC3)nc12 [Compound 97]
34 | < 1 µM | CC(C)c1cnn2c(NCc3ccccc3-c3nc4ccccc4[nH]3)nc(N3CCC(N)CC3)nc12 [Compound 98]
35 | 1 to 10 µM | CC(C)c1cnn2c(NCc3ccccc3-n3cc4cc(Cl)ccc4n3)nc(N3CCC(N)CC3)nc12 [Compound 103]
